Test results published in patent US8815934B2, “2-Phenyl-1-[4-(2-Aminoethoxy)-Benzyl]-Indole and estrogen formulations” (Wyeth LLC, priority 1998, dated 2014).

Tested on: Female Sprague Dawley CD rats, ovx
Test: 6-week ovariectomized rat model
Type: in vivo
Conditions: 2 μg/rat s.c. daily, mean ± SEM
From the text: Female Sprague Dawley CD rats, ovx or sham ovx, were obtained 1 day after surgery from Taconic Farm (weight range 240-275 g). They were housed 3 or 4 rats/cage in a room on a 14/10 (light/dark) schedule and provided with food (Purina 500 rat chow) and water ad libitum. Treatment for all studies began 1 day after the animals arrival and dosed 5 or 7 days per week as indicated for 6 weeks. A group of age matched sham operated rats not receiving any treatment served as an intact, estrogen replete control group for each study. All treatments were prepared in 1% […] in normal saline at defined concentrations so that the treatment volume was 0.1 mL/100 g body weight. 17-beta estradiol was dissolved in corn oil (20 uG/mL) and delivered subcutaneously; 0.1 mL/rat. All dosages were adjusted at three week intervals according to group mean body weight measurements.
Five weeks after the initiation of treatment and one week prior to the termination of the study, each rat was evaluated for bone mineral density (BMD). The BMD's of the proximal tibiae (PT) and fourth lumbar vertabrae (L4) were measured in anesthetized, rats using a dual energy X-ray absorptiometer (Eclipse XR-26, Norland Corp. Ft. Atkins, Wis.). […] Total choleserol is determined using a Boehringer-Mannheim Hitachi 911 clinical analyzer using the Cholesterol/HP kit. […]

`C[C@]12CC[C@@H]3c4ccc(O)cc4CC[C@H]3[C@@H]1CC[C@@H]2O` [17β-estradiol] was tested, and the “BMD L4” value (following 5 weeks of treatment) was 0.169 ± 0.004 mg/cm^2 and the Cholesterol (following 6 weeks of treatment) was 95.5 ± 3.9 mg/dL.
